Data published in patent US9018214B2, “Bicyclic heterocycle compounds and their uses in therapy” (Astex Therapeutics Limited, priority 2011, dated 2015).
Structures can show the parent of a compound that is named as a salt. Where two headings read alike, the source gives them in different places.

Experiments:
[1] = test system: MDA-MB-231 (human breast carcinoma); test: Anti-proliferative activity, Alamar Blue assay, MDA-MB-231; format: cell-based; conditions: read-out: EC50, inhibition of cell growth
[2] = test system: EVSA-T (human breast carcinoma); test: Anti-proliferative activity, Alamar Blue assay, EVSA-T; format: cell-based; conditions: Homo sapiens
[3] = target: BIR3 domain of human cIAP-1 (residues 267-363) (Homo sapiens (Human), UniProt Q13490); test: cIAP-1 in vitro competitive displacement binding assay (fluorescence polarization; Probe A AVPIK(5&6FAM)-amide or Probe B AbuRPFK(5&6FAM)-amide)
[4] = target: BIR3 domain of human XIAP (residues 252-350) (Homo sapiens (Human), UniProt P98170); test: XIAP in vitro competitive displacement binding assay (fluorescence polarization); conditions: read-out: IC50 or PI Xiap: IC50
[5] = EVSA-T, 72 h, read-out: EC50, inhibition of cell growth
[6] = EVSA-T, 72 h, read-out: EVSA-T prolif (EC50)
[7] = read-out: IC50 or PI cIAP1: IC50
[8] = Probe B AbuRPFK(5&6FAM)-amide, read-out: IC50 or PI cIAP1: IC50
[9] = MDA-MB-231 cell line, 72 hours, Alamar Blue
[10] = EVSA-T cell line, 72 hours, Alamar Blue, read-out: EC50, inhibition of cell growth
[11] = EVSA-T, 72 hours, Alamar Blue, read-out: EVSA-T prolif (EC50)

Structure (SMILES)	EC50 ([1]; MDA-MB-231, 72 h) [nM]	EC50 [2, 5] [nM]	EC50 [2, 6] [nM]	IC50 [3] [nM]	IC50 [3, 7] [nM]	IC50 [4] [nM]	IC50 [3, 8] [nM]	EC50 [1, 9] [nM]	EC50 [2, 10] [nM]	EC50 [2, 11] [nM]	inhibition at 0.01 µM ([3]; 3 h, Probe B, @ 0.01 μM, read-out: IC50 or PI cIAP1: PI) [%]
C[C@@H]1CN(CC(=O)N2CC(C)(C)c3cc(F)c(S(=O)(=O)c4ccccc4)cc32)CCN1 [Example 47, 1-(6-Benzenesulfonyl-5-fluoro-3,3-dimethyl-2,3-dihydro-indol-1-yl)-2-((R)-3-methyl-piperazin-1-yl)-ethanone dihydrochloride salt]	< 10000	< 10000	1800	< 1000	390	270	–	–	–	–	–
CC[C@H]1CN[C@H](C)CN1CC(=O)N1CC(C)(C)c2cc(F)c(S(=O)(=O)c3ccccc3)cc21 [Example 48, 1-(6-Benzenesulfonyl-5-fluoro-3,3-dimethyl-2,3-dihydro-indol-1-yl)-2-((2S,5R)-2-ethyl-5-methyl-piperazin-1-yl)-ethanone dihydrochloride salt]	< 10000	< 10000	250	< 1000	64	97	–	–	–	–	–
COC[C@H]1CN[C@H](C)CN1CC(=O)N1CC(C)(C)c2cc(F)c(S(=O)(=O)c3ccccc3)cc21 [Example 58, 1-(6-Benzene-sulfonyl-5-fluoro-3,3-dimethyl-2,3-dihydro-indol-1-yl)-2-((2R,5R)-2-methoxymethyl-5-methyl-piperazin-1-yl)-ethanone hydrochloride salt]	< 10000	–	170	–	–	–	45	–	–	–	–
COC[C@H]1CN[C@H](C)CN1CC(=O)N1CC(C)(C)c2ccc(S(=O)(=O)CC(C)C)cc21 [Example 64, 1-[3,3-Dimethyl-6-(2-methyl-propane-1-sulfonyl)-2,3-dihydro-indol-1-yl]-2-((2R,5R)-2-methoxymethyl-5-methyl-piperazin-1-yl)-ethanone dihydrochloride salt]	< 10000	–	1000	–	140	270	–	–	–	–	–
COC[C@H]1CN[C@H](C)CN1CC(=O)N1CC(C)(C)c2cc(=O)n(Cc3ccccc3)cc21 [Example 67, 6-Benzyl-1-[2-((2R,5R)-2-methoxymethyl-5-methyl-piperazin-1-yl)-acetyl]-3,3-dimethyl-1,2,3,6-tetrahydro-pyrrolo[2,3-c]pyridin-5-one hydrochloride salt]	–	–	–	< 1000	–	310	17	< 10000	< 10000	350	–
COC[C@H]1CN[C@H](C)CN1CC(=O)N1CC(C)(C)c2cnc(Cc3ccc(Cl)cc3)cc21 [Example 82, 1-[6-(4-Chloro-benzyl)-3,3-dimethyl-2,3-dihydro-pyrrolo[3,2-c]pyridin-1-yl]-2-((2R,5R)-2-methoxymethyl-5-methyl-piperazin-1-yl)-ethanone]	–	–	–	–	–	220	–	< 10000	< 10000	34	86
COC[C@H]1CN[C@H](C)CN1CC(=O)N1CC(C)(C)c2cnc(Oc3ccccc3C)cc21 [Example 83, 1-(3,3-Dimethyl-6-o-tolyloxy-2,3-dihydro-pyrrolo[3,2-c]pyridin-1-yl)-2-((2R,5R)-2-methoxymethyl-5-methyl-piperazin-1-yl)-ethanone hydrochloride salt]	–	–	–	< 1000	–	350	110	< 10000	< 10000	2000	–
COC[C@H]1CN[C@H](C)CN1CC(=O)N1CC(C)(C)c2ccc(Cc3ccccc3)cc21 [Example 94, 1-(6-Benzyl-3,3-dimethyl-2,3-dihydro-1H-indol-1-yl)-2-[(2R,5R)-2-(methoxy-methyl)-5-methyl-piperazin-1-yl]ethan-1-one, hydrochloride salt]	< 10000	–	330	–	–	–	14	–	–	–	–
COC[C@H]1CN[C@H](C)CN1CC(=O)N1CC(C)(C)c2cnc(Oc3c(C)cccc3C)cc21 [Example 119, 1-[6-(2,6-Dimethylphenoxy)-3,3-dimethyl-1H,2H,3H-pyrrolo[3,2-c]pyridin-1-yl]-2-[(2R,5R)-2-(methoxymethyl)-5-methylpiperazin-1-yl]ethan-1-one hydrochloride]	< 10000	–	870	–	–	–	96	–	–	–	–
